According to patent US8324390B2, “Tetrazole-substituted anthranilamides as pesticides” (Bayer CropScience AG, priority 2008, dated 2012):
Read-outs that look alike come from different tables or passages of the source.

Legend:
[1] = system: caterpillars of the armyworm (Spodoptera frugiperda); test: Spodoptera frugiperda test (SPODFR spray treatment); format: in vivo; settings: Spodoptera frugiperda, foliar, read-out: effect in % (caterpillars killed)
From the text: (§1) Solvent: 78.0 parts by weight of acetone

[2] = system: larvae of the mustard beetle (Phaedon cochleariae); test: Phaedon test (PHAECO spray treatment); settings: Phaedon cochleariae, in Brassica rapa, foliar, read-out: effect in % (beetle larvae killed)
[3] = system: green peach aphid (Myzus persicae); test: Myzus test (MYZUPE spray treatment); format: in vivo; settings: Myzus persicae, foliar, read-out: effect in % (aphids killed)
From the text: Solvent: 78 parts by weight of acetone
as §1

[4] = log P determination by HPLC (EEC Directive 79/831 Annex V.A8); format: physicochemical
Procedure: The measurements were carried out using an Agilent 1100 LC system with a 50*4.6 Zorbax Eclipse C18 1.8 μm column (oven temperature 55° C., flow rate 2.0 ml/min).
The following mobile phases were used:
Mobile phase A: acetonitrile+1000 μl of formic acid/l
Mobile phase B: Millipore water+900 μl of formic acid/l

[5] = application rate 100 g/ha, maize leaf discs
[6] = application rate 100 g/ha, Chinese cabbage leaf discs
[7] = reversed-phase HPLC, Zorbax Eclipse C18 column, determined by HPLC according to EEC Directive 79/831 Annex V.A8, read-out: log P
[8] = reversed-phase HPLC, Zorbax Eclipse C18 column, by HPLC according to EEC Directive 79/831 Annex V.A8, read-out: log P

chromatographic logP [4, 7]	chromatographic logP [4, 8]	Compound	pest or weed control at 100 g/ha [1, 5] [%]	pest or weed control at 100 g/ha [2] [%]	pest or weed control at 100 g/ha [3, 6] [%]	pest or weed control at 100 g/ha ([1]; in Zea mays) [%]	pest or weed control at 100 g/ha ([3]; in Brassica rapa) [%]	chromatographic logP ([4]; log P)	pest or weed control at 20 g/ha ([3]; in Brassica rapa) [%]
2.79		CNC(=O)c1cc(Cl)cc(C)c1NC(=O)c1cc(Cn2nnnc2C(F)(F)F)nn1-c1ncccc1Br [Example 480]	≥ 80	≥ 80	≥ 80				
		CCOCCNC(=O)c1cc(C#N)cc(C)c1NC(=O)c1cc(Cn2nnc(C(F)(F)F)n2)nn1-c1ncccc1Cl [Example 211]		≥ 80		≥ 80	≥ 80	2.99	
		Cc1cc(F)cc(C(=O)NC(C)C)c1NC(=O)c1cc(Cn2nnnc2C(F)(F)F)nn1-c1ncccc1Cl [Example 168]		≥ 80		≥ 80	≥ 80	2.76	
		Cc1cc(C#N)cc(C(=O)NC(C)C)c1NC(=O)c1cc(Cn2nnnc2C(F)F)nn1-c1ncccc1Cl [Example 463]		≥ 80		≥ 80	≥ 80	2.36	
		CCNC(=O)c1cc(C#N)cc(C)c1NC(=O)c1cc(Cn2nnc(C(F)(F)F)n2)nn1-c1ncccc1Cl [Example 21]		≥ 80		≥ 80	≥ 80	2.85	
		Cc1cc(C#N)cc(C(=O)NCc2ccco2)c1NC(=O)c1cc(Cn2nnc(C(F)(F)F)n2)nn1-c1ncccc1Cl [Example 77]		≥ 80		≥ 80	≥ 80	3.14	
	2.85	Cc1cc(C#N)cc(C(=O)NC2CC2)c1NC(=O)c1cc(Cn2nnc(C(F)(F)F)n2)nn1-c1ncccc1Br [Example 333]	≥ 80	≥ 80	≥ 80				
		C#CCNC(=O)c1cc(C#N)cc(C)c1NC(=O)c1cc(Cn2nnc(C(F)(F)F)n2)nn1-c1ncccc1Cl [Example 96]		≥ 80		≥ 80	≥ 80	2.9	
		Cc1cc(Cl)cc(C(=O)NC2CC2)c1NC(=O)c1cc(Cn2nnnc2C(F)F)nn1-c1ncccc1Cl [Example 461]		≥ 80		≥ 80		2.5	≥ 80
		Cc1cc(C#N)cc(C(=O)NC2CC2)c1NC(=O)c1cc(Cn2nnnc2C(F)(F)C(F)(F)F)nn1-c1ncccc1Cl [Example 445]		≥ 80		≥ 80	≥ 80	2.95	
		Cc1cc(F)cc(C(=O)NC(C)(C)C)c1NC(=O)c1cc(Cn2nnc(C(F)F)n2)nn1-c1ncccc1Cl [Example 308]		≥ 80		≥ 80	≥ 80	2.9	
		Cc1cc(C#N)cc(C(=O)NC(C)C(F)(F)F)c1NC(=O)c1cc(Cn2nnc(C(F)(F)F)n2)nn1-c1ncccc1Cl (stereo not drawn) [Example 433]		≥ 80		≥ 80	≥ 80	3.25	
		Cc1cc(C#N)cc(C(=O)NC(C)C2CC2)c1NC(=O)c1cc(Cn2nnnc2C(F)(F)C(F)(F)F)nn1-c1ncccc1Cl (stereo not drawn) [Example 203]		≥ 80		≥ 80	≥ 80	3.48	
		Cc1cc(C#N)cc(C(=O)NCC(F)F)c1NC(=O)c1cc(Cn2nnc(C(F)(F)F)n2)nn1-c1ncccc1Cl [Example 91]		≥ 80		≥ 80	≥ 80	2.91	
		COCCNC(=O)c1cc(C#N)cc(C)c1NC(=O)c1cc(Cn2nnc(C(F)(F)F)n2)nn1-c1ncccc1Cl [Example 92]		≥ 80		≥ 80	≥ 80	2.73	
		C=C(C)CNC(=O)c1cc(Cl)cc(C)c1NC(=O)c1cc(Cn2nnc(C(F)(F)F)n2)nn1-c1ncccc1Cl [Example 337]		≥ 80		≥ 80	≥ 80	3.62	
		NC(=O)c1cc(Cl)cc(Cl)c1NC(=O)c1cc(Cn2nnc(C(F)F)n2)nn1-c1ncccc1Cl [Example 305]		≥ 80		≥ 80	≥ 80	2.31	
		CCC(C)NC(=O)c1cc(C#N)cc(C)c1NC(=O)c1cc(Cn2nnc(C(F)(F)F)n2)nn1-c1ncccc1Cl (stereo not drawn) [Example 97]		≥ 80		≥ 80		3.32	≥ 80
2.46		CNC(=O)c1cc(C#N)cc(C)c1NC(=O)c1cc(Cn2nnc(C(F)(F)F)n2)nn1-c1ncccc1F [Example 405]	≥ 80	≥ 80	≥ 80				
3.88		Cc1cc(C#N)cc(C(=O)NC(C)(C)C)c1NC(=O)c1cc(Cn2nnc(C(F)(F)F)n2)nn1-c1c(F)cccc1Cl [Example 528]	≥ 80	≥ 80	≥ 80				
		CC(C)(C)NC(=O)c1cc(Cl)cc(Cl)c1NC(=O)c1cc(Cn2nnnc2C(F)(F)F)nn1-c1ncccc1Cl [Example 177]		≥ 80		≥ 80	≥ 80	3.43	
		Cc1cc(C#N)cc(C(=O)NC(C2CC2)C2CC2)c1NC(=O)c1cc(Cn2nnnc2C(F)(F)F)nn1-c1ncccc1Cl [Example 196]		≥ 80		≥ 80	≥ 80	3.28	
		CNC(=O)c1cc(I)cc(C)c1NC(=O)c1cc(Cn2nnc(C(F)(F)F)n2)nn1-c1ncccc1Cl [Example 65]		≥ 80		≥ 80	≥ 80	3.21	
		Cc1cc(Br)cc(C(=O)NC2CC2)c1NC(=O)c1cc(Cn2nnnc2C(F)(F)F)nn1-c1ncccc1Cl [Example 181]		≥ 80		≥ 80	≥ 80	2.99	
3.41		Cc1cc(I)cc(C(=O)NC(C)C)c1NC(=O)c1cc(Cn2nnnc2C(F)(F)F)nn1-c1ncccc1Br [Example 504]	≥ 80	≥ 80	≥ 80				
		CSC[C@H](C)NC(=O)c1cc(Cl)cc(C)c1NC(=O)c1cc(Cn2nnc(C(F)(F)F)n2)nn1-c1ncccc1Cl [Example 41]		≥ 80		≥ 80	≥ 80	3.68	
	2.67	Cc1cc(C#N)cc(C(N)=O)c1NC(=O)c1cc(Cn2nnc(C(F)(F)F)n2)nn1-c1ncccc1C(F)(F)F [Example 236]	≥ 80	≥ 80	≥ 80				
